Measurements as given in patent US20080009437A1, “Pharmaceutical Compositions and Method for Treating Dry Eye” (priority 2006, published 2008).
“And” between values parts separate entries of the source, which are not always exact repeats. Equal entries are not always repeated. “Also recorded” adds a separate entry of the source.

Experiments:
[1] = tested on: rabbit eye (anterior chamber paracentesis); assay: Pupillary diameter measurement, rabbit paracentesis model; format: in vivo; conditions: group mean, n=8 eyes
Description: (§1) Each rabbit was placed in a restraint device and tagged with the alphanumeric code. The formulations were instilled (50 μl) into the conjunctival sac of both eyes 180, 120, 90 and 30 min before the first paracentesis; then 15, 30, 90 min after the first paracentesis. To perform the first paracentesis the animals were anaesthetized by intraveneous injection of 5 mg/kg Zoletil® (Virbac; 2.5 mg/kg tiletamine HCl and 2.5 mg/kg zolazepam HCl) and one drop of local anesthetic (Novesina®, Novartis) was administered to the eye. Anterior chamber paracentesis was performed with a 26 G needle attached to a tuberculin syringe; the needle was introduced into the anterior chamber through the cornea, taking care not to damage the tissues. Two hours after the first paracentesis, the animals were sacrificed with 0.4 ml Tanax® (Intervet International B. V.) and the second paracentesis was performed. About 100 μl of aqueous humor were removed at the second paracentesis. Aqueous humor was immediately split in four aliquots and stored at −80° C. until analysis. Then both eyes were enucleated and the iris-ciliary body was carefully excised, placed in polypropylene tubes, and stored at −80° C. until analysis.
The pupillary diameter of both eyes was measured with a Castroviejo caliper 180 min and 5 min before the first paracentesis and 5 min before the second paracentesis.
(§2) Pupillary diameter, PGE2, protein, PMN, and MPO were expressed as mean±SEM. Statistical analysis was performed using one way ANOVA followed by a Newman-Keuls post hoc test. Clinical score was expressed as % of eyes and the statistical analysis was performed using Kruskal-Wallis followed by a Dunn post hoc test. P<0.05 was considered statistically significant in both cases. Prism 4 software (GraphPad Software, Inc.) was used for the analysis and graphs.

[2] = tested on: PGE2 in the aqueous humor; assay: Prostaglandin E2 (PGE2) measurement in aqueous humor; format: in vivo, Rabbit; conditions: individual eye sample, second paracentesis
[3] = tested on: leukocytes (PMN) in aqueous humor; assay: Leukocytes (PMN) measurement in aqueous humor; format: in vivo, Rabbit; conditions: second paracentesis; for PMN (number/μl) in aqueous humor, raw data: individual eye sample; for PMN in aqueous humor, Mean (number/μl): group mean
Description: as §1
For the determination of the number of leukocytes we used a haemocytometer (Improved Neubauer Chamber; Brigth-line, Hausser Scientific) and a Polyvar 2 microscope (Reichert-Jung).
as §2

[4] = tested on: rabbit paracentesis model; assay: Rabbit paracentesis model, overall anti-inflammatory activity; format: in vivo; conditions: 0.1%, 0.5% and 1% topical formulations; preliminary conclusions; listed as BOL-303242-X
Excerpt: Inflammatory processes are multidimensional in origin, and are characterized by complex cellular and molecular events involving numerous components all of which have not been identified. Prostaglandins are among these mediators and play an important role in certain forms of ocular inflammation. Paracentesis of the anterior chamber in the rabbit eye induces inflammatory reaction due to the disruption of the blood-aqueous barrier (“BAB”), which is mediated, at least in part, by prostaglandin E2 [References 1-3 below]. Intraocular or topical administration of PGE2 disrupts the BAB. [Reference 4, below] The treatment schedule adopted in this study was similar to the clinical NSAIDs (Ocufen) treatment schedule used by surgeons for patients before cataract surgery.
Each rabbit was placed in a restraint device and tagged with the alphanumeric code. The formulations were instilled (50 μl) into the conjunctival sac of both eyes 180, 120, 90 and 30 min before the first paracentesis; then 15, 30, 90 min after the first paracentesis. To perform the first paracentesis the animals were anaesthetized by intraveneous injection of 5 mg/kg Zoletil® (Virbac; 2.5 mg/kg tiletamine HCl and 2.5 mg/kg zolazepam HCl) and one drop of local anesthetic (Novesina®, Novartis) was administered to the eye. […]

| SMILES | Mean (mm) Δ(T3-T1) pupillary diameter ([1]; 0.1% topical formulation) [mm] | Mean (mm) Δ(T3-T1) pupillary diameter ([1]; 0.5% topical formulation) [mm] | Mean (mm) Δ(T3-T1) pupillary diameter ([1]; 1% topical formulation) [mm] | PGE2 (ng/ml) in aqueous humor, raw data ([2]; 0.1% topical formulation) | PGE2 (ng/ml) in aqueous humor, raw data ([2]; 0.5% topical formulation) | PGE2 (ng/ml) in aqueous humor, raw data ([2]; 1% topical formulation) [ng/mL] | PMN (number/μl) in aqueous humor, raw data ([3]; 0.1% topical formulation) | PMN (number/μl) in aqueous humor, raw data ([3]; 0.5% topical formulation) | PMN (number/μl) in aqueous humor, raw data ([3]; 1% topical formulation) | Anti-inflammatory activity in rabbit paracentesis model (conclusion) [4] | PMN in aqueous humor, Mean (number/μl) ([3]; 0.1% topical formulation) | Mean (mm) Δ(T3-T1) pupillary diameter ([1]; 0.03% topical formulation) [mm] | PGE2 (ng/ml) in aqueous humor, raw data ([2]; 0.03% topical formulation) | PMN in aqueous humor, Mean (number/μl) ([3]; 0.03% topical formulation) | PMN (number/μl) in aqueous humor, raw data ([3]; 0.03% topical formulation) |
| --- | --- | --- | --- | --- | --- | --- | --- | --- | --- | --- | --- | --- | --- | --- | --- |
| Cc1ccc2c(NCC(O)(CC(C)(C)c3cc(F)cc4c3OCC4)C(F)(F)F)cccc2n1 (stereo not drawn) [BOL] | −1.1 | −1.0 | −0.9 | 0.70 ng/mL | 0.53 ng/mL and 0.75 ng/mL and 0.80 ng/mL | 0.50 | 20 number/μl (4×) and 40 number/μl and 50 number/μl | 40 number/μl (2×) and 20 number/μl (3×) and 10 number/μl (3×) | 30 number/μl (3×) and 20 number/μl (3×) and 40 number/μl (2×) | active in this model; also recorded: as effective an anti-inflammatory drug as some of the commonly accepted prior-art steroids or NSAID | – | – | – | – | – |
| C[C@@H]1C[C@H]2[C@@H]3CCC4=CC(=O)C=C[C@]4(C)[C@@]3(F)[C@@H](O)C[C@]2(C)[C@@]1(O)C(=O)CO [Dex, dexamethasone] | −0.8 | – | – | 2.10 ng/mL and 1.30 ng/mL | – | – | 20 number/μl (3×) and 50 number/μl and 40 number/μl and 30 number/μl | – | – | – | 30.000 | – | – | – | – |
| CC(C(=O)O)c1ccc(-c2ccccc2)c(F)c1 (stereo not drawn) [F, flurbiprofen] | – | – | – | – | – | – | – | – | – | – | – | −0.9 | 0.75 ng/mL and 0.85 ng/mL and 0.93 ng/mL and 0.61 ng/mL | 30.000 | 50 number/μl and 40 number/μl (2×) and 20 number/μl (2×) and 10 number/μl and 30 number/μl |
| CCOC(=O)O[C@]1(C(=O)OCCl)CC[C@H]2[C@@H]3CCC4=CC(=O)C=C[C@]4(C)[C@H]3[C@@H](O)C[C@@]21C [LE, loteprednol etabonate] | – | −0.9 | – | – | ^2N/D^ and 0.23 ng/ml and 0.68 ng/ml and 1.10 ng/ml | – | – | 40 number/μl (2×) and 20 number/μl (3×) and 30 number/μl | – | – | – | – | – | – | – |
